# Data from ChEMBL document CHEMBL5143615, “Novel 2-aryl-4-aryloxyquinoline-based fungistatics for Mucor circinelloides. Biological evaluation of activity, QSAR and docking study” (Bioorg Med Chem Lett, 2022).
# Calls of active or inactive are those of the source. The rule behind the calls is not given here.
# Legend:
# Mucor circinelloides [1] = experiment: Antifungal activity against Mucor circinelloides R7B wild type strain assessed as reduction in spore germination at 100 ug/ml relative to control; format: functional; set-up: scale not given: the % may be the effect or the level left; conditions: dose 100 µg/ml
# Mucor circinelloides [2] = experiment: Antifungal activity against Mucor circinelloides M5 strain assessed as reduction in spore germination at 100 ug/ml relative to control; format: functional; set-up: scale not given: the % may be the effect or the level left; conditions: dose 100 µg/ml
# Mucor circinelloides [3] = experiment: Antifungal activity against Mucor circinelloides R7B wild type strain assessed as reduction in spore germination at 25 ug/ml relative to control; format: functional; set-up: scale not given: the % may be the effect or the level left; conditions: dose 25 µg/ml
# Mucor circinelloides [4] = experiment: Antifungal activity against Mucor circinelloides M5 strain assessed as reduction in spore germination at 25 ug/ml relative to control; format: functional; set-up: scale not given: the % may be the effect or the level left; conditions: dose 25 µg/ml
# Mucor circinelloides [5] = experiment: Antifungal activity against Mucor circinelloides R7B wild type strain assessed as reduction in spore germination at 50 ug/ml relative to control; format: functional; set-up: scale not given: the % may be the effect or the level left; conditions: dose 50 µg/ml
# Mucor circinelloides [6] = experiment: Antifungal activity against Mucor circinelloides M5 strain assessed as reduction in spore germination at 50 ug/ml relative to control; format: functional; set-up: scale not given: the % may be the effect or the level left; conditions: dose 50 µg/ml
# Mucor circinelloides [7] = experiment: Antifungal activity against Mucor circinelloides R7B wild type strain assessed as reduction in spore germination at 150 ug/ml relative to control; format: functional; set-up: scale not given: the % may be the effect or the level left; conditions: dose 150 µg/ml
# Mucor circinelloides [8] = experiment: Antifungal activity against Mucor circinelloides M5 strain assessed as reduction in spore germination at 150 ug/ml relative to control; format: functional; set-up: scale not given: the % may be the effect or the level left; conditions: dose 150 µg/ml
# [9] = Cytotoxicity against mouse NIH/3T3 cells assessed as reduction in cell viability at 25 ug/ml incubated for 48 hrs by MTT assay (reference value: 93.8 +/- 4.9 %); format: toxicity, cell-based, NIH3T3; conditions: at 25 µg/mL, read-out: Activity
# [10] = Cytotoxicity against mouse NIH/3T3 cells assessed as reduction in cell viability at 50 ug/ml incubated for 48 hrs by MTT assay (reference value: 93.8 +/- 4.9 %); format: toxicity, cell-based, NIH3T3; conditions: at 50 µg/mL, read-out: Activity
# [11] = Cytotoxicity against mouse NIH/3T3 cells assessed as reduction in cell viability at 100 ug/ml incubated for 48 hrs by MTT assay (reference value: 93.8 +/- 4.9 %); format: toxicity, cell-based, NIH3T3; conditions: at 100 µg/mL, read-out: Activity
# [12] = Cytotoxicity against mouse NIH/3T3 cells assessed as reduction in cell viability at 150 ug/ml incubated for 48 hrs by MTT assay (reference value: 93.8 +/- 4.9 %); format: toxicity, cell-based, NIH3T3; conditions: at 150 µg/mL, read-out: Activity
# [13] = Cytotoxicity against mouse NIH/3T3 cells assessed as reduction in cell viability at 200 ug/ml incubated for 48 hrs by MTT assay (reference value: 93.8 +/- 4.9 %); format: toxicity, cell-based, NIH3T3; conditions: at 200 µg/mL, read-out: Activity
# [14] = target: T1, Lanosterol 14-alpha demethylase (Mus musculus, UniProt Q8K0C4); experiment: Inhibition of CYP51 in mouse NIH/3T3 cells assessed as specific enzymatic activity at 25 ug/ml incubated for 48 hrs by ELISA analysis; format: ADME, cell-based; conditions: nih/3t3, 48 h, dose 25 µg/ml
# T1 sequence (Q8K0C4 whole entry): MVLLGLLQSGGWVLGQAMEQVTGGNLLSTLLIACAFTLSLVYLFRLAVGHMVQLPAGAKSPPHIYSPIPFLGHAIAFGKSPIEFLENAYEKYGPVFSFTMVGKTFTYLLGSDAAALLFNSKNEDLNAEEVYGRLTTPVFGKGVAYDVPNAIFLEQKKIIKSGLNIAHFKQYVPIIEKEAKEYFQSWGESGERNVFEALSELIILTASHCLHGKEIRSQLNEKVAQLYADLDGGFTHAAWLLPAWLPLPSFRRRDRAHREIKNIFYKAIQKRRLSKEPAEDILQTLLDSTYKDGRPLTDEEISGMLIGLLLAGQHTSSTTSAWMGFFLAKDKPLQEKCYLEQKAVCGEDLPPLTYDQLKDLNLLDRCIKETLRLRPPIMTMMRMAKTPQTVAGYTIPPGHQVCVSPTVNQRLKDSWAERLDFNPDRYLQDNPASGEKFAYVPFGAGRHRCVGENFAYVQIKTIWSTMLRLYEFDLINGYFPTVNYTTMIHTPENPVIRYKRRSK
# [15] = target: T1, Lanosterol 14-alpha demethylase; experiment: Inhibition of CYP51 in mouse NIH/3T3 cells assessed as specific enzymatic activity at 50 ug/ml incubated for 48 hrs by ELISA analysis; format: ADME, cell-based; conditions: nih/3t3, 48 h, dose 50 µg/ml
# [16] = target: T1, Lanosterol 14-alpha demethylase; experiment: Inhibition of CYP51 in mouse NIH/3T3 cells assessed as specific enzymatic activity at 100 ug/ml incubated for 48 hrs by ELISA analysis; format: ADME, cell-based; conditions: nih/3t3, 48 h, dose 100 µg/ml
# [17] = target: T1, Lanosterol 14-alpha demethylase; experiment: Inhibition of CYP51 in mouse NIH/3T3 cells assessed as specific enzymatic activity at 150 ug/ml incubated for 48 hrs by ELISA analysis; format: ADME, cell-based; conditions: nih/3t3, 48 h, dose 150 µg/ml
# [18] = target: T1, Lanosterol 14-alpha demethylase; experiment: Inhibition of CYP51 in mouse NIH/3T3 cells assessed as specific enzymatic activity at 200 ug/ml incubated for 48 hrs by ELISA analysis; format: ADME, cell-based; conditions: nih/3t3, 48 h, dose 200 µg/ml
# Mucor circinelloides [19] = experiment: Antifungal activity against Mucor circinelloides R7B wild type strain assessed as few mycelia with several spores at 50 ug/ml by microscopic analysis; format: functional, organism-based; conditions: dose 50.0 µg/ml
# Mucor circinelloides [20] = experiment: Antifungal activity against Mucor circinelloides M5 strain assessed as few mycelia with several spores at 50 ug/ml by microscopic analysis; format: functional, organism-based; conditions: dose 50.0 µg/ml
# Mucor circinelloides [21] = experiment: Antifungal activity against Mucor circinelloides R7B wild type strain assessed as non-germinated spores and undifferentiated hyphae at 50 ug/ml by microscopic analysis; format: functional, organism-based; conditions: dose 50.0 µg/ml
# Mucor circinelloides [22] = experiment: Antifungal activity against Mucor circinelloides M5 strain assessed as non-germinated spores and undifferentiated hyphae at 50 ug/ml by microscopic analysis; format: functional, organism-based; conditions: dose 50.0 µg/ml
# Mucor circinelloides [23] = experiment: Antifungal activity against Mucor circinelloides R7B wild type strain assessed as complete absence of mycelia at 100 to 150 ug/ml by microscopic analysis; format: functional, organism-based; conditions: dose 100-150 µg/ml
# Mucor circinelloides [24] = experiment: Antifungal activity against Mucor circinelloides M5 strain assessed as complete absence of mycelia at 100 to 150 ug/ml by microscopic analysis; format: functional, organism-based; conditions: dose 100-150 µg/ml
# Mucor circinelloides [25] = experiment: Antifungal activity against Mucor circinelloides R7B wild type strain assessed as non-germinated spores at 100 to 150 ug/ml by microscopic analysis; format: functional, organism-based; conditions: dose 100-150 µg/ml
# Mucor circinelloides [26] = experiment: Antifungal activity against Mucor circinelloides M5 strain assessed as non-germinated spores at 100 to 150 ug/ml by microscopic analysis; format: functional, organism-based; conditions: dose 100-150 µg/ml
# Microsporum canis [27] = experiment: Antifungal activity against Microsporum canis clinical isolate 1 assessed as reduction in fungal growth by broth dilution method; format: functional
# Microsporum canis [28] = experiment: Antifungal activity against Microsporum canis clinical isolate 2 assessed as reduction in fungal growth by broth dilution method; format: functional
# Microsporum canis [29] = experiment: Antifungal activity against Microsporum canis clinical isolate 3 assessed as reduction in fungal growth by broth dilution method; format: functional
# Nannizzia gypsea [30] = experiment: Antifungal activity against Microsporum gypseum clinical isolate 1 assessed as reduction in fungal growth by broth dilution method; format: functional
# Nannizzia gypsea [31] = experiment: Antifungal activity against Microsporum gypseum clinical isolate 2 assessed as reduction in fungal growth by broth dilution method; format: functional
# Mucor circinelloides [32] = experiment: Antifungal activity against Mucor circinelloides M5 strain assessed as reduction in fungal growth by broth dilution method; format: functional
# [33] = system: Trichophyton mentagrophytes; experiment: Antifungal activity against Trichophyton mentagrophytes clinical isolate 1 assessed as reduction in fungal growth by broth dilution method; format: functional
# [34] = system: Trichophyton mentagrophytes; experiment: Antifungal activity against Trichophyton mentagrophytes clinical isolate 2 assessed as reduction in fungal growth by broth dilution method; format: functional
# [35] = system: Trichophyton mentagrophytes; experiment: Antifungal activity against Trichophyton mentagrophytes clinical isolate 3 assessed as reduction in fungal growth by broth dilution method; format: functional
# Trichophyton rubrum [36] = experiment: Antifungal activity against Trichophyton rubrum clinical isolate 1 assessed as reduction in fungal growth by broth dilution method; format: functional
# Trichophyton rubrum [37] = experiment: Antifungal activity against Trichophyton rubrum clinical isolate 2 assessed as reduction in fungal growth by broth dilution method; format: functional
# Epidermophyton floccosum = experiment: Antifungal activity against Epidermophyton floccosum clinical isolate 1 assessed as reduction in fungal growth by broth dilution method; format: functional
# Aspergillus nidulans [38] = experiment: Antifungal activity against Aspergillus nidulans clinical isolate 1 assessed as reduction in fungal growth by broth dilution method; format: functional
# Aspergillus nidulans [39] = experiment: Antifungal activity against Aspergillus nidulans clinical isolate 2 assessed as reduction in fungal growth by broth dilution method; format: functional
# Aspergillus niger = experiment: Antifungal activity against Aspergillus niger clinical isolate 1 assessed as reduction in fungal growth by broth dilution method; format: functional
# Mucor circinelloides [40] = experiment: Antifungal activity against Mucor circinelloides R7B wild type strain assessed as reduction in fungal growth by broth dilution method; format: functional
smiles,measurement,setting,value
O=[N+]([O-])c1ccc(Oc2cc(-c3cc(F)cc(F)c3)nc3ccccc23)cc1,Activity,Mucor circinelloides [1],7.9%
same,Activity,Mucor circinelloides [2],11.2%
same,Activity,Mucor circinelloides [3],83.9%
same,Activity,Mucor circinelloides [4],82.5%
same,Activity,Mucor circinelloides [5],28.3%
same,Activity,Mucor circinelloides [6],37.3%
same,Activity,Mucor circinelloides [7],5.8%
same,Activity,Mucor circinelloides [8],7.9%
same,"viability at 48 h, 25 ug/ml",[9],94.5%
same,"viability at 48 h, 50 ug/ml",[10],91.8%
same,"viability at 48 h, 100 ug/ml",[11],84%
same,"viability at 48 h, 150 ug/ml",[12],18.3%
same,"viability at 48 h, 200 ug/ml",[13],15.5%
same,Activity,[14],16.7 U/mg
same,Activity,[15],11.21 U/mg
same,Activity,[16],6.02 U/mg
same,Activity,[17],2.56 U/mg
same,Activity,[18],0.4 U/mg
same,Activity,Mucor circinelloides [19],Active
same,Activity,Mucor circinelloides [20],Active
same,Activity,Mucor circinelloides [21],Active
same,Activity,Mucor circinelloides [22],Active
same,Activity,Mucor circinelloides [23],Active
same,Activity,Mucor circinelloides [24],Active
same,Activity,Mucor circinelloides [25],Active
same,Activity,Mucor circinelloides [26],Active
Fc1cc(F)cc(-c2cc(Oc3ccccc3)c3ccccc3n2)c1,Activity,Mucor circinelloides [1],6.7%
same,Activity,Mucor circinelloides [2],4.5%
same,Activity,Mucor circinelloides [3],78.5%
same,Activity,Mucor circinelloides [4],74.2%
same,Activity,Mucor circinelloides [5],34.7%
same,Activity,Mucor circinelloides [6],38.5%
same,Activity,Mucor circinelloides [7],1.7%
same,Activity,Mucor circinelloides [8],2.5%
same,MIC,Microsporum canis [27],100 µg/mL
same,MIC,Microsporum canis [28],100 µg/mL
same,MIC,Microsporum canis [29],100 µg/mL
same,MIC,Nannizzia gypsea [30],100 µg/mL
same,MIC,Nannizzia gypsea [31],100 µg/mL
same,MIC,Mucor circinelloides [32],100 µg/mL
same,MIC,[33],125 µg/mL
same,MIC,[34],125 µg/mL
same,MIC,[35],125 µg/mL
same,MIC,Trichophyton rubrum [36],125 µg/mL
same,MIC,Trichophyton rubrum [37],125 µg/mL
same,MIC,Epidermophyton floccosum,125 µg/mL
same,MIC,Aspergillus nidulans [38],150 µg/mL
same,MIC,Aspergillus nidulans [39],150 µg/mL
same,MIC,Aspergillus niger,150 µg/mL
same,MIC,Mucor circinelloides [40],150 µg/mL
same,"viability at 48 h, 25 ug/ml",[9],90.7%
same,"viability at 48 h, 50 ug/ml",[10],53.3%
same,"viability at 48 h, 100 ug/ml",[11],20.4%
same,"viability at 48 h, 150 ug/ml",[12],15%
same,"viability at 48 h, 200 ug/ml",[13],12.6%
same,Activity,[14],17.96 U/mg
same,Activity,[15],13.12 U/mg
same,Activity,[16],6.76 U/mg
same,Activity,[17],3.28 U/mg
same,Activity,[18],1.18 U/mg
same,Activity,Mucor circinelloides [19],Active
same,Activity,Mucor circinelloides [20],Active
same,Activity,Mucor circinelloides [21],Active
same,Activity,Mucor circinelloides [22],Active
same,Activity,Mucor circinelloides [23],Active
same,Activity,Mucor circinelloides [24],Active
same,Activity,Mucor circinelloides [25],Active
same,Activity,Mucor circinelloides [26],Active
